Laboratory results taken from ChEMBL document CHEMBL3779788, “Facile synthesis of 1,3-thiazolidin-4-ones as antitubercular agents” (Bioorg Med Chem Lett, 2016).
Values after ≈ are worked out from the molar mass of the structure shown.

What was measured:
[1] = Cytotoxicity against human MCF7 cells at 10 ug/mL by MTT assay; format: cell-based; conditions: read-out: INH
[2] = tested on: Mycobacterium tuberculosis; test: Antitubercular activity against dormant Mycobacterium tuberculosis H37Ra assessed as growth inhibition at 3 ug/mL by XTT reduction menadione assay; format: functional; conditions: read-out: GI
[3] = Cytotoxicity against human HCT116 cells at 30 ug/mL by MTT assay; format: cell-based, HCT-116; conditions: read-out: INH
Staphylococcus aureus = test: Antibacterial activity against Staphylococcus aureus after 18 hrs by broth dilution method; format: functional, organism-based
[4] = Cytotoxicity against human HCT116 cells after 48 and 72 hrs by MTT assay; format: cell-based, HCT-116; conditions: for GI50 at 72 h: HCT116 cells; for GI90: hct-116, 72 h
MCF7 = test: (§1) Cytotoxicity against human MCF7 cells after 48 and 72 hrs by MTT assay; format: cell-based; conditions: mcf7, 72 h
[5] = as §1; format: cell-based; conditions: MCF7 cells
Bacillus subtilis = test: Antibacterial activity against Bacillus subtilis after 18 hrs by broth dilution method; format: functional, organism-based
[6] = Cytotoxicity against human A549 cells at 3 ug/mL by MTT assay; format: cell-based; conditions: read-out: INH
[7] = tested on: Mycobacterium tuberculosis; test: Antitubercular activity against dormant Mycobacterium tuberculosis H37Ra assessed as growth inhibition at 30 ug/mL by XTT reduction menadione assay; format: functional; conditions: read-out: GI
[8] = Cytotoxicity against human A549 cells at 30 ug/mL by MTT assay; format: cell-based; conditions: read-out: INH
[9] = Cytotoxicity against human MCF7 cells at 3 ug/mL by MTT assay; format: cell-based; conditions: read-out: INH
[10] = Cytotoxicity against human HCT116 cells at 10 ug/mL by MTT assay; format: cell-based, HCT-116; conditions: read-out: INH
[11] = tested on: Mycobacterium bovis BCG str. ATCC 35743; test: (§2) Antitubercular activity against dormant Mycobacterium bovis BCG ATCC 35743 by NR assay; format: functional
[12] = as §2; format: functional, Mycobacterium bovis BCG str. ATCC 35743
[13] = Cytotoxicity against human HCT116 cells at 3 ug/mL by MTT assay; format: cell-based, HCT-116; conditions: read-out: INH
[14] = Cytotoxicity against human MCF7 cells at 30 ug/mL by MTT assay; format: cell-based; conditions: read-out: INH
[15] = tested on: Mycobacterium bovis BCG str. ATCC 35743; test: Antitubercular activity against dormant Mycobacterium bovis BCG ATCC 35743 assessed as growth inhibition at 10 ug/mL by NR assay; format: functional
[16] = tested on: Mycobacterium tuberculosis; test: Antitubercular activity against dormant Mycobacterium tuberculosis H37Ra assessed as growth inhibition at 10 ug/mL by XTT reduction menadione assay; format: functional; conditions: read-out: GI
Pseudomonas = test: Antibacterial activity against Pseudomonas after 18 hrs by broth dilution method; format: functional, organism-based
[17] = tested on: Mycobacterium bovis BCG str. ATCC 35743; test: Antitubercular activity against dormant Mycobacterium bovis BCG ATCC 35743 assessed as growth inhibition at 3 ug/mL by NR assay; format: functional
A549 = test: (§3) Cytotoxicity against human A549 cells after 48 and 72 hrs by MTT assay; format: cell-based; conditions: a549, 72 h
[18] = as §3; format: cell-based; conditions: A549 cells
Escherichia coli = test: Antibacterial activity against Escherichia coli after 18 hrs by broth dilution method; format: functional, organism-based
[19] = Cytotoxicity against human A549 cells at 10 ug/mL by MTT assay; format: cell-based; conditions: read-out: INH
[20] = tested on: Mycobacterium tuberculosis; test: Antitubercular activity against dormant Mycobacterium tuberculosis H37Ra by XTT reduction menadione assay; format: functional, organism-based
[21] = tested on: Mycobacterium bovis BCG str. ATCC 35743; test: Antitubercular activity against dormant Mycobacterium bovis BCG ATCC 35743 assessed as growth inhibition at 30 ug/mL by NR assay; format: functional

SMILES: COc1ccc(C2SCC(=O)N2c2ccccc2)cc1 (stereo not drawn)
- cytotoxicity at 10 ug/mL [1]: 12.6%
- inhibition of growth at 3 µg/mL [2]: 45.1%
- cytotoxicity at 30 ug/mL [3]: 8.4%
- IC50 (Staphylococcus aureus): > 30 µg/mL
- MIC (Staphylococcus aureus): > 30 µg/mL
- GI50 at 72 h [4]: > 100 µg/mL
- GI90 [4]: > 100 µg/mL
- GI90 (MCF7): > 100 µg/mL
- GI50 at 72 h [5]: > 100 µg/mL
- IC50 (Bacillus subtilis): > 30 µg/mL
- MIC (Bacillus subtilis): > 30 µg/mL
- cytotoxicity at 3 ug/mL [6]: 0%
- inhibition of growth at 30 µg/mL [7]: 83.3%
- cytotoxicity at 30 ug/mL [8]: -4.3%
- cytotoxicity at 3 ug/mL [9]: -2.6%
- cytotoxicity at 10 ug/mL [10]: 7.2%
- IC90 [11]: > 30 µg/mL
- IC50 [12]: 8.7 µg/mL (≈ 30.5 µM)
- cytotoxicity at 3 ug/mL [13]: -5.4%
- cytotoxicity at 30 ug/mL [14]: 18.3%
- growth inhibition (GI) [15]: 56.1%
- inhibition of growth at 10 µg/mL [16]: 74.1%
- IC50 (Pseudomonas): > 30 µg/mL
- MIC (Pseudomonas): > 30 µg/mL
- growth inhibition (GI) [17]: 23.2%
- GI90 (A549): > 100 µg/mL
- GI50 at 72 h [18]: > 100 µg/mL
- IC50 (Escherichia coli): > 30 µg/mL
- MIC (Escherichia coli): > 30 µg/mL
- cytotoxicity at 10 ug/mL [19]: 0%
- IC50 [20]: 4.2 µg/mL (≈ 14.7 µM)
- IC90 [20]: > 30 µg/mL
- growth inhibition (GI) [21]: 85.9%

SMILES: CC(=O)O[C@H]1C(=O)[C@@]2(C)[C@H]([C@H](OC(=O)c3ccccc3)[C@]3(O)C[C@H](OC(=O)[C@H](O)[C@@H](NC(=O)c4ccccc4)c4ccccc4)C(C)=C1C3(C)C)[C@]1(OC(C)=O)CO[C@@H]1C[C@@H]2O [PACLITAXEL]
- GI50 at 72 h [4]: 5.21 µg/mL (≈ 6.1 µM)
- GI90 [4]: 0.026 µg/mL (≈ 0.0304 µM)
- GI90 (MCF7): 0.0039 µg/mL (≈ 0.00457 µM)
- GI50 at 72 h [5]: 0.075 µg/mL (≈ 0.0878 µM)
- GI90 (A549): < 0.004 µg/mL
- GI50 at 72 h [18]: 0.039 µg/mL (≈ 0.0457 µM)

SMILES: O=C1CSC(c2ccc(Cl)cc2)N1c1ccc(Cl)cc1 (stereo not drawn)
- cytotoxicity at 10 ug/mL [1]: 16.6%
- inhibition of growth at 3 µg/mL [2]: 11.8%
- cytotoxicity at 30 ug/mL [3]: 15.9%
- cytotoxicity at 3 ug/mL [6]: 0%
- inhibition of growth at 30 µg/mL [7]: -19.8%
- cytotoxicity at 30 ug/mL [8]: 0%
- cytotoxicity at 3 ug/mL [9]: 14.5%
- cytotoxicity at 10 ug/mL [10]: 1.3%
- IC90 [11]: > 30 µg/mL
- IC50 [12]: > 30 µg/mL
- cytotoxicity at 3 ug/mL [13]: -8.1%
- cytotoxicity at 30 ug/mL [14]: 14.8%
- growth inhibition (GI) [15]: 0%
- inhibition of growth at 10 µg/mL [16]: 24.1%
- growth inhibition (GI) [17]: -20.2%
- cytotoxicity at 10 ug/mL [19]: 0%
- IC50 [20]: > 30 µg/mL
- IC90 [20]: > 30 µg/mL
- growth inhibition (GI) [21]: -0.8%

SMILES: COc1ccc(C2SCC(=O)N2c2ccc(Cl)cc2)cc1 (stereo not drawn)
- cytotoxicity at 10 ug/mL [1]: 0%
- inhibition of growth at 3 µg/mL [2]: 37.6%
- cytotoxicity at 30 ug/mL [3]: 12%
- cytotoxicity at 3 ug/mL [6]: -4%
- inhibition of growth at 30 µg/mL [7]: 9.5%
- cytotoxicity at 30 ug/mL [8]: 0%
- cytotoxicity at 3 ug/mL [9]: 0%
- cytotoxicity at 10 ug/mL [10]: -2.3%
- IC90 [11]: > 30 µg/mL
- IC50 [12]: > 30 µg/mL
- cytotoxicity at 3 ug/mL [13]: -2.9%
- cytotoxicity at 30 ug/mL [14]: 38.6%
- growth inhibition (GI) [15]: -0.7%
- inhibition of growth at 10 µg/mL [16]: 18%
- growth inhibition (GI) [17]: 5.3%
- cytotoxicity at 10 ug/mL [19]: 0%
- IC50 [20]: > 30 µg/mL
- IC90 [20]: > 30 µg/mL
- growth inhibition (GI) [21]: 1.6%

SMILES: O=C1CSC(c2ccc([N+](=O)[O-])cc2)N1c1ccccc1 (stereo not drawn)
- cytotoxicity at 10 ug/mL [1]: 49.9%
- inhibition of growth at 3 µg/mL [2]: -17.1%
- cytotoxicity at 30 ug/mL [3]: 29.3%
- cytotoxicity at 3 ug/mL [6]: 0.3%
- inhibition of growth at 30 µg/mL [7]: -8.8%
- cytotoxicity at 30 ug/mL [8]: 8.8%
- cytotoxicity at 3 ug/mL [9]: 47%
- cytotoxicity at 10 ug/mL [10]: 9%
- IC90 [11]: > 30 µg/mL
- IC50 [12]: > 30 µg/mL
- cytotoxicity at 3 ug/mL [13]: -11.5%
- cytotoxicity at 30 ug/mL [14]: 52.6%
- growth inhibition (GI) [15]: 12.5%
- inhibition of growth at 10 µg/mL [16]: -30.4%
- growth inhibition (GI) [17]: 17.8%
- cytotoxicity at 10 ug/mL [19]: 6.7%
- IC50 [20]: > 30 µg/mL
- IC90 [20]: > 30 µg/mL
- growth inhibition (GI) [21]: 14.4%

SMILES: Cc1ccc(C2SCC(=O)N2c2ccccc2)cc1 (stereo not drawn)
- cytotoxicity at 10 ug/mL [1]: 16.9%
- inhibition of growth at 3 µg/mL [2]: 12%
- cytotoxicity at 30 ug/mL [3]: -9.8%
- cytotoxicity at 3 ug/mL [6]: -10.3%
- inhibition of growth at 30 µg/mL [7]: 17.8%
- cytotoxicity at 30 ug/mL [8]: 27.8%
- cytotoxicity at 3 ug/mL [9]: 0%
- cytotoxicity at 10 ug/mL [10]: -11.9%
- IC90 [11]: > 30 µg/mL
- IC50 [12]: > 30 µg/mL
- cytotoxicity at 3 ug/mL [13]: -25.8%
- cytotoxicity at 30 ug/mL [14]: 40.7%
- growth inhibition (GI) [15]: 0.2%
- inhibition of growth at 10 µg/mL [16]: 31%
- growth inhibition (GI) [17]: 2%
- cytotoxicity at 10 ug/mL [19]: -12.6%
- IC50 [20]: > 30 µg/mL
- IC90 [20]: > 30 µg/mL
- growth inhibition (GI) [21]: 16.6%

SMILES: Cc1ccc(N2C(=O)CSC2c2ccc([N+](=O)[O-])cc2)cc1 (stereo not drawn)
- cytotoxicity at 10 ug/mL [1]: 38.8%
- inhibition of growth at 3 µg/mL [2]: 21.2%
- cytotoxicity at 30 ug/mL [3]: -12.4%
- cytotoxicity at 3 ug/mL [6]: -11.3%
- inhibition of growth at 30 µg/mL [7]: 14.4%
- cytotoxicity at 30 ug/mL [8]: -10.3%
- cytotoxicity at 3 ug/mL [9]: 34.6%
- cytotoxicity at 10 ug/mL [10]: -14.6%
- IC90 [11]: > 30 µg/mL
- IC50 [12]: > 30 µg/mL
- cytotoxicity at 3 ug/mL [13]: -16.1%
- cytotoxicity at 30 ug/mL [14]: 45.6%
- growth inhibition (GI) [15]: -6.1%
- inhibition of growth at 10 µg/mL [16]: -5.4%
- growth inhibition (GI) [17]: -2%
- cytotoxicity at 10 ug/mL [19]: 0%
- IC50 [20]: > 30 µg/mL
- IC90 [20]: > 30 µg/mL
- growth inhibition (GI) [21]: -7.1%

SMILES: Cc1ccc(C2SCC(=O)N2c2ccc(C)cc2)cc1 (stereo not drawn)
- cytotoxicity at 10 ug/mL [1]: 16.4%
- inhibition of growth at 3 µg/mL [2]: -18.5%
- cytotoxicity at 30 ug/mL [3]: 45%
- cytotoxicity at 3 ug/mL [6]: 8.6%
- inhibition of growth at 30 µg/mL [7]: -27.4%
- cytotoxicity at 30 ug/mL [8]: -13.4%
- cytotoxicity at 3 ug/mL [9]: -9.2%
- cytotoxicity at 10 ug/mL [10]: 16.7%
- IC90 [11]: > 30 µg/mL
- IC50 [12]: > 30 µg/mL
- cytotoxicity at 3 ug/mL [13]: 9.7%
- cytotoxicity at 30 ug/mL [14]: 19.6%
- growth inhibition (GI) [15]: -1.2%
- inhibition of growth at 10 µg/mL [16]: -26.4%
- growth inhibition (GI) [17]: -12.5%
- cytotoxicity at 10 ug/mL [19]: 0%
- IC50 [20]: > 30 µg/mL
- IC90 [20]: > 30 µg/mL
- growth inhibition (GI) [21]: -1.9%
